From US12539320B2, “Composition for improving eyesight” (South China Agricultural University, priority 2022, dated 2026)

Assays:
Type in all cases: in vivo, BALB/c mice
Settings in all cases: 5 μL dripped into conjunctival sac 2 times a day for 15 days, mean (SD in next cell)
[1] = tested on: conjunctival epithelial mucin MUC5AC; test: Expression amount of conjunctival epithelial mucin MUC5AC by Western Blot in xerophthalmia mice
Description: (§1) 1.1 Test animals: 100 SPF-grade 8-week-old healthy BALB/c mice, each weighed 18-22 g, were selected, and anterior segment and fundus of the eyes were not abnormal.
(§2) 1.2. Establishment of animal model: 90 mice were selected to induce a model of xerophthalmia. 5 μL of 2 g/L of a benzalkonium chloride solution was dripped into conjunctival sac of the eyes of 90 mice for 2 times a day and continuously for 15 days. After the modeling was success, the mice were randomly divided into 9 groups with 10 mice in each group.
(§3) 1.3. […] After 15 days, the secretion amount of tear, breakup time of a tear film, and the expression amount of conjunctival epithelial mucin MUC5AC were measured for the mice in each group.
(3) Measurement of expression amount of conjunctival epithelial mucin MUC5AC: an expression level of the mucin MUC5AC in the conjunctival epithelial cells of the mouse was detected by Western Blot.

mice with xerophthalmia [2] = test: Measurement of breakup time of tear film (fluorescein sodium, slit lamp) in xerophthalmia mice
Description: as §1, §2, §3
(2) Measurement of breakup time of tear film: 1 μL of 10 g/L of a fluorescein sodium solution was dripped into the conjunctival sac of the mouse, after the mouse blinked, the eyes were artificially kept in a normal opening state, and time for a tear film to generate the 1st black spot (breaking point) was observed and recorded under a cobalt blue light of a slit lamp.

mice with xerophthalmia [3] = test: Measurement of secretion amount of tear (phenol red cotton thread) in benzalkonium chloride-induced xerophthalmia mice
Description: as §1, §2, §3
(1) Measurement of secretion amount of tear: a phenol red cotton thread was placed in the conjunctival sac of the mouse at about ⅓ outside for 1 min and a length of a red part of the phenol red cotton thread was measured.

Substance: lutein ester [Comparative example 3]
- Expression amount of conjunctival epithelial mucin MUC5AC [1]: 0.38 ng/mg
- Breakup time of tear film (mice with xerophthalmia [2]): 36.72 s
- Secretion amount of tear (mice with xerophthalmia [3]): 6.46 mm
